Assay type in all cases: in vivo
Assay [1] concerns ptosis induced by reserpine. Kind of assay: Inhibition of ptosis induced by reserpine in mice. The method, then: (§1) In one the inhibition of ptosis induced by reserpine was studied, and in the other the effect on mobility in adverse situation was investigated.
2.1 Inhibition of Ptosis Induced by Reserpine in Mice:
The method used was that described by S.Garattini and co-workers (Med. Exp., 1960, 3, 315-320). The trial consists of observing the possible inhibition of ptosis induced by reserpine ([…], ip: intraperitoneal) in mice, after the products under study had been administered orally.
The activity of the (±)-5-{α-[2-(dimethylamino)ethoxy] benzyl}-1-methyl-1H-pyrazol citrate (example 191) administered orally at different doses has been determined.

The subject of assay [2] is immobility time in adverse situation. Kind of assay: Effect on mobility in adverse situation (mice suspended by their tails, ITEMATIC-TST).
Description: as §1
2.2 Effect on Mobility in Adverse Situation:
The method used was described by R. D. Porsolt and co-workers (Arch. Int. Pharmacodyn., 1987, 288, 11-30). The trial consists of suspending the mice by their tales for six minutes in an ITEMATIC-TST apparatus, which measures the mobility and the strength of the animals' movements. The animals exposed to this adverse situation, after a start with vigorous activity, become desperate and end up staying still.

Assay [3] concerns intrathecal release of substance P. In words: Effect on the spinal release of substance P in rats (intrathecal perfusion). As for the experimental part:
Effect on the Spinal Release of Substance P in Rats:
The study was carried out in vivo, in rats anaesthetised with halothane. The trial consisted of intrathecal perfusion with an artificial cerebrospinal fluid, with a view to collecting the peptides released from the superficial layers of the spinal cord while the product under study is administered locally or systematically. The method used was that described by Collin, E. and co-workers (Naunyn-Schmiedeberg's Arch. Pharmacol., 1994, 349, 387-393).
The activity of the (±)-5-{α-[2-(dimethylamino)ethoxy] benzyl}-1-methyl-1H-pyrazol citrate (example 191) was studied, administered intrathecally in the perfusion liquid, at a concentration of 1 μM.
It is of note that the effect of the systematic administration of product on the intrathecal release of substance P lasted 2 hours, the average inhibition being 50% of the effect during this period.

Where two headings read alike, the source gives them in different places.

The values below come from patent publication US6518295B1, “Utilization of aryl(or heteroaryl)azolylcarbinol derivatives in the preparation of a medicament for the treatment of troubles mediated by an excess of substance P” (Laboratorios del Dr. Esteve, S.A., priority 1998, dated 2003).

As to `CN(C)CCOC(c1ccccc1)c1ccnn1C.O=C(O)CC(O)(CC(=O)O)C(=O)O` (racemic) [Example 191, (±)-5-{α-[2-(dimethylamino)ethoxy]benzyl}-1-methyl-1H-pyrazol citrate], the inhibition at 12 mg/kg in assay [1] (Mus musculus, 12 mg/kg, oral (dose as base)) is 8%; in assay [2] (Mus musculus, mice, dose 12 mg/kg, oral), 20%. The inhibition at 23 mg/kg in assay [1] (Mus musculus, 23 mg/kg, oral (dose as base)) worked out at 30%; in assay [2] (Mus musculus, mice, dose 23 mg/kg, oral), 30%. Also, the inhibition at 80 mg/kg in assay [1] (Mus musculus, 80 mg/kg, oral (dose as base)) worked out at 75%. For the same compound, the inhibition at 92 mg/kg came to 84% in assay [1] (Mus musculus, 92 mg/kg, oral (dose as base)) and 69% in assay [2] (Mus musculus, mice, dose 92 mg/kg, oral). Also, the “anti-depressive activity, inhibition of the effects of reserpine” value in assay [1] (oral, different doses) was “clear anti-depressive activity inhibiting the effects of reserpine with a good dose-response”. Moreover, the SD-50 in assay [1] (oral, inhibition of ptosis induced by reserpine) was 38.5 mg/kg, oral. Moreover, the inhibition at 46 mg/kg came out at 41% in assay [2] (Mus musculus, mice, dose 46 mg/kg, oral); 50% in assay [3] (Rattus norvegicus, central, systematic administration (46 mg/kg), average during the 2 hours, read-out: average inhibition of intrathecal release of substance P); 50% in assay [3] (Rattus norvegicus, 46 mg/kg, ip, rats anaesthetised with halothane, read-out: % Inhibition, with respect to control, of intrathecal release of substance P). The “effect on the immobility period” value in assay [2] (mice suspended by their tails for six minutes) was “reducing the immobility period significantly and in a dose-dependent fashion”. For the same compound, in assay [2] (mice, oral), the “DE-50 (inhibition of immobility time in adverse situation)” value is recorded as 50.5 mg/kg, oral. For the same compound, the inhibition at 1 µM in assay [3] (Rattus norvegicus, central, 1 μM, intrathecal, in the perfusion liquid, rats anaesthetised with halothane, read-out: % Inhibition, with respect to control, of intrathecal release of substance P) stood at 58%. The “effect on release of substance P” value in assay [3] (intrathecally in the perfusion liquid, 1 μM) is “inhibited the release of substance P”; in assay [3] (systematic administration of 46 mg/kg), “reduced the release of substance P”. Moreover, the “duration of the effect on the intrathecal release of substance P” value in assay [3] (systematic administration (46 mg/kg)) stood at 2 h.

A word on the inhibition: it is the change of the read-out against control, counted positive when it falls.
